The record followed here is patent US20240398828A1, “HETERO-ATOM CONTAINING COMPOUNDS AND USES THEREOF” (Kumquat Biosciences Inc., priority 2021, published 2024).

In one test the target is T1, PTPN1 (i.e., PTP1B) (Homo sapiens, UniProt P18031).
T1 sequence (P18031 1-435): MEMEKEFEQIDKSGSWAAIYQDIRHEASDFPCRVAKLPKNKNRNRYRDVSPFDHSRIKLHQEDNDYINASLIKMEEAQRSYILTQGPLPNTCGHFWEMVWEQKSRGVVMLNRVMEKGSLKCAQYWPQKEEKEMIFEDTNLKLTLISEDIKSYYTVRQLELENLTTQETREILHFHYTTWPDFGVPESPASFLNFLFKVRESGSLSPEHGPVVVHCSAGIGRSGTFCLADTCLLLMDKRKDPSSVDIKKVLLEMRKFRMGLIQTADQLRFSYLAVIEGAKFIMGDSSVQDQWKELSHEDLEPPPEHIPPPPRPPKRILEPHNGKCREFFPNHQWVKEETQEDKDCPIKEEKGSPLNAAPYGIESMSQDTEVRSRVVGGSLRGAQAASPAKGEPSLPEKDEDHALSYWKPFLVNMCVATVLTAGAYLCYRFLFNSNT
In words: Phosphatase activity assay (DiFMUP substrate), PTP1B. Type of test: biochemical. As to conditions: compounds binned ≤1 uM or >1 uM. In short, it runs like this: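 RT, HEPES pH 7.5 buffer with DTT/Tween-20. 10-point inhibitor series premixed ~2 min with enzyme (PTPN2 0.025 ng/ul). Start with DiFMUP at enzyme Km (~45 μM for PTPN2). Read DiFMU ex360/em450 continuously 15–30 min; initial rate vs concentration, 4-parameter fit → IC50.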

Another test deals with T2, PTPN2 (i.e., TC-PTP) (Homo sapiens, UniProt P17706).
T2 sequence (P17706 1-415): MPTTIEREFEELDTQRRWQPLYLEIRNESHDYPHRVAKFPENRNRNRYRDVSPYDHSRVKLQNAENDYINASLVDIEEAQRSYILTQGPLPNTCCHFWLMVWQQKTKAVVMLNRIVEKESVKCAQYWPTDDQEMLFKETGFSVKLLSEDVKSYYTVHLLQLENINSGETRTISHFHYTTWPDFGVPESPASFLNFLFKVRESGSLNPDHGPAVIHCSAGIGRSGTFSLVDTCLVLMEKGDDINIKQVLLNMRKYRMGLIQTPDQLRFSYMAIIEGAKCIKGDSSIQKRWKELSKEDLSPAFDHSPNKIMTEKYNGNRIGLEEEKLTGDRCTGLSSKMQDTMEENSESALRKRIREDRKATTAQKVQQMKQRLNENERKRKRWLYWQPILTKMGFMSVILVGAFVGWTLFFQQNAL
In words: Phosphatase activity assay (DiFMUP substrate), PTPN2. Type of test: biochemical. To be noted: compounds binned ≤1 uM or >1 uM. The method, boiled down: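 Enzyme (e.g. PTPN2 0.025 ng/ul) mixed about 2 min with compound at 10 serial concentrations in 50 mM HEPES pH 7.5, 150 mM NaCl, 0.5 mM EDTA, 1 mM DTT, 0.001% Tween-20 at room temperature. DiFMUP added at each enzyme's Km (about 45 μM for PTPN2). DiFMU fluorescence (ex 360/em 450 nm) followed 15-30 min; IC50 from 4-parameter fit of rates.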

Molecules are shown by their SMILES.

For the molecule `CC(C)CCC1C=C(c2ccc(O)c(N3CC(=O)NS3(=O)=O)c2F)CN1` (stereo not shown) [Compound 541, 5-(2-fluoro-6-hydroxy-3-(5-isopentyl-2,5-dihydro-1H-pyrrol-3-yl)phenyl)-1,2,5-thiadiazolidin-3-one 1,1-dioxide], the IC50 (usually the midpoint of a concentration-inhibition curve) is no more than 1000 nM at PTPN1 (i.e., PTP1B) and no more than 1000 nM at PTPN2 (i.e., TC-PTP).
As for `O=C1CN(c2c(O)ccc(-c3cnn(C4(C(F)F)CC4)c3)c2F)S(=O)(=O)N1` [Compound 542, 5-(3-(1-(1-(difluoromethyl)cyclopropyl)-1H-pyrazol-4-yl)-2-fluoro-6-hydroxyphenyl)-1,2,5-thiadiazolidin-3-one 1,1-dioxide], the IC50 on PTPN1 (i.e., PTP1B) is no more than 1000 nM; on PTPN2 (i.e., TC-PTP), no more than 1000 nM.
With `CNC(=O)n1nc(-c2ccc(O)c(N3CC(=O)NS3(=O)=O)c2F)cc1C1CC1` [Compound 543, 5-cyclopropyl-3-(3-(1,1-dioxido-4-oxo-1,2,5-thiadiazolidin-2-yl)-2-fluoro-4-hydroxyphenyl)-N-methyl-1H-pyrazole-1-carboxamide], the IC50 on PTPN1 (i.e., PTP1B) was no more than 1000 nM; on PTPN2 (i.e., TC-PTP), no more than 1000 nM.
For `CC(C)CCN1CC=C(c2ccc(O)c(N3CC(=O)NS3(=O)=O)c2F)C1` [Compound 544, 5-(2-fluoro-6-hydroxy-3-(1-isopentyl-2,5-dihydro-1H-pyrrol-3-yl)phenyl)-1,2,5-thiadiazolidin-3-one 1,1-dioxide], the IC50 at PTPN1 (i.e., PTP1B) was no more than 1000 nM; on PTPN2 (i.e., TC-PTP), no more than 1000 nM.
In the case of `COC(=O)n1nc(C2CC2)cc1-c1ccc(O)c(N2CC(=O)NS2(=O)=O)c1F` [Compound 545, methyl 3-cyclopropyl-5-(3-(1,1-dioxido-4-oxo-1,2,5-thiadiazolidin-2-yl)-2-fluoro-4-hydroxyphenyl)-1H-pyrazole-1-carboxylate], the half-maximal inhibitory concentration (IC50) on PTPN1 (i.e., PTP1B) is no more than 1000 nM; on PTPN2 (i.e., TC-PTP) it was no more than 1000 nM.
